pEC50: −log10 of the molar value.
Legend:
[1] = Activation of SMN2 promoter in mouse NSC34 cells assessed as induction of beta-lactamase activity relative to nonactivated cells; type: functional
[2] = Activation of SMN2 promoter in mouse NSC34 cells assessed as induction of beta-lactamase activity; type: functional, cell-based; details: Mus musculus, NSC-34
Throughout, for activity: test concentration or dose not given here.

SMILES	Activity [1]	pEC50 [2]
CCCOc1cccc2nc(N)nc(N)c12	2.1	6.74
CCC(Oc1cccc2nc(N)nc(N)c12)c1ccc(Cl)cc1 (racemic)	–	6.77
Nc1nc(N)c2c(OCc3cccnc3)cccc2n1	2.1	7.62
Cc1cccc(S(=O)(=O)N2CCC(COc3cccc4nc(N)nc(N)c34)CC2)c1	1.8	6.66
CC(Oc1cccc2nc(N)nc(N)c12)c1ccc(Cl)c(Cl)c1 (racemic)	–	6.49
Nc1nc(N)c2c(OCC3CCN(C(=O)c4ccc(F)c(F)c4)CC3)cccc2n1	2.4	6.98
COc1ccc(COc2cccc3nc(N)nc(N)c23)cc1	1.7	6.52
CN1CCCCC1COc1cccc2nc(N)nc(N)c12 (stereo not given)	1.9	6.85
Nc1nc(N)c2c(OCC3CCN(S(=O)(=O)c4ccc(F)c(F)c4)CC3)cccc2n1	2.1	7.40
Nc1nc(N)c2c(COc3ccc(F)cc3)cccc2n1	2.2	6.46
CC(C)COc1cccc2nc(N)nc(N)c12	1.8	6.74
Nc1nc(N)c2c(OCc3cc(F)ccc3F)cccc2n1	2	7.33
CCCCOc1cccc2nc(N)nc(N)c12	2.2	6.85
Cl.Nc1nc(N)c2c(OCC3CCN(Cc4ccc(F)cc4F)CC3)cccc2n1	1.9	7.74
CCCCCOc1cccc2nc(N)nc(N)c12	2.1	6.72
C[C@H](Oc1cccc2nc(N)nc(N)c12)c1ccc2ccccc2c1	–	6.36
CC(Oc1cccc2nc(N)nc(N)c12)c1ccccc1C(F)(F)F (racemic)	–	6.00
Nc1nc(N)c2c(OCc3cc(F)cc(F)c3)cccc2n1	1.9	7.85
Nc1nc(N)c2c(OC3(c4cccc(Cl)c4)CC3)cccc2n1	–	6.54
CC(Oc1cccc2nc(N)nc(N)c12)c1cccc(C(F)(F)F)c1 (racemic)	–	7.33
Nc1nc(N)c2c(OCC3CCN(Cc4ccc5ccccc5c4)CC3)cccc2n1	1.7	6.83
Cc1ccccc1COc1cccc2nc(N)nc(N)c12	1.6	6.55
Nc1nc(N)c2c(OCC3CCCC3)cccc2n1	1.9	6.33
Nc1nc(N)c2c(OCc3c(F)cccc3F)cccc2n1	1.8	6.72

SMILES	Activity [1]	pEC50 [2]
CCCCCCCCCOc1cccc2nc(N)nc(N)c12	1.7	6.26
Cc1ccccc1C(=O)N1CCC(COc2cccc3nc(N)nc(N)c23)CC1	2.5	6.80
Nc1nc(N)c2c(OCC3CCN(C(=O)c4ccccc4F)CC3)cccc2n1	2.5	7.13
Nc1nc(N)c2c(Oc3cccc4ccncc34)cccc2n1	1.59	5.61
CC(Oc1cccc2nc(N)nc(N)c12)c1ccccc1 (racemic)	–	6.62
Cc1ccc(OCc2cccc3nc(N)nc(N)c23)cc1	2.2	6.39
Nc1nc(N)c2c(OCc3cccc(C(F)(F)F)c3)cccc2n1	1.5	7.64
Nc1nc(N)c2c(OCC3CCCCC3)cccc2n1	1.9	5.57
Nc1nc(N)c2c(COc3ccccc3I)cccc2n1	1.9	6.41
CC(Oc1cccc2nc(N)nc(N)c12)c1ccc(Cl)cc1 (racemic)	–	7.10
CC(Oc1cccc2nc(N)nc(N)c12)c1cccc(F)c1 (racemic; form 2)	–	7.30
COc1cccc(COc2cccc3nc(N)nc(N)c23)c1	1.6	7.18
Nc1nc(N)c2c(OCc3cccs3)cccc2n1	1.9	7.14
Nc1nc(N)c2c(Oc3cccc(Cl)c3)cccc2n1	1.74	6.32
Nc1nc(N)c2c(OCc3cc4ccccc4cn3)cccc2n1	2.3	6.66
Cl.Nc1nc(N)c2c(Oc3cccc4cnccc34)cccc2n1	2.04	5.99
Cc1cc(COc2cccc3nc(N)nc(N)c23)no1	2.2	6.55
C[C@@H](Oc1cccc2nc(N)nc(N)c12)c1cccc(Cl)c1	–	7.49
Cc1cccc(C(=O)N2CCC(COc3cccc4nc(N)nc(N)c34)CC2)c1	2.2	6.96
CC(C)CCOc1cccc2nc(N)nc(N)c12	2	7.01
CC(C)(Oc1cccc2nc(N)nc(N)c12)c1cccc(Cl)c1	–	5.63
Cc1ccc(S(=O)(=O)N2CCC(COc3cccc4nc(N)nc(N)c34)CC2)cc1	1.9	6.26
Nc1nc(N)c2c(OCC3CCN(Cc4cccc(F)c4F)CC3)cccc2n1	2.2	7.42
Nc1nc(N)c2c(OCC3CCN(Cc4ccc(F)c(F)c4)CC3)cccc2n1	2	6.49

— ChEMBL document CHEMBL1140748, “Synthesis and biological evaluation of novel 2,4-diaminoquinazoline derivatives as SMN2 promoter activators for the potential treatment of spinal muscular atrophy” (J Med Chem, 2008)
